Test results from patent US20250129067A1 (Progentos Therapeutics, Inc., priority 2021, published 2025).
pIC50: −log10 of the molar value. Values joined by “and” are separate entries in the source; they are usually repeats but may differ in a detail not shown here. Equal values may be shown once. Read-outs that look alike come from different tables or passages of the source.

Legend:
[1] = system: Oligodendrocyte progenitor cells (OPCs); test: In vitro OPC differentiation assay, MBP expression (immunocytochemistry); details: 72 hours of treatment; fold change over vehicle
[2] = system: GPR17+ cells (newly differentiated oligodendrocytes); test: In vivo OPC differentiation, GPR17+ cells in brain; details: for fold induction at 10 mg/kg / fold induction at 3.3 mg/kg / fold induction at 30 mg/kg / fold induction at 3 mg/kg: Mus musculus, po, 24 h, read-out: GPR17 Fold Induction (Over Vehicle); for GPR17 Fold Induction (Over Vehicle): dose not assignable from Table 10, GPR17+ cells in brain, mice
Protocol: The ability of newly constructed compounds to drive OPC differentiation and myelination in vivo was tested. The ability of these compounds to drive OPC differentiation in vivo was tested using GPR17 as an indicator of newly differentiated oligodendrocytes.
Compounds were delivered PO or IP either QD or BID. Mice were dosed once, transiently, or continuously through the treatment period, which ranged from 1-3 days.
Mice were euthanized by isoflurane exposure and transcardially perfused with 14 mL of PBS (Sigma Cat #P4417-50TAB) followed by 22 mL of 3.2% paraformaldehyde in PBS. The brains were removed and postfixed for a minimum of 24 hours in 20 mL of 3.2% paraformaldehyde.
50-micron floating sections were cut using a Leica VT1200S vibratome. Every 24th section, extending through the antero-posterior extent of the brain, was stained. The selected brain sections were washed three times in PBS for 3 minutes each. The floating sections were incubated in the primary antibodies (see Table 10, below) diluted in blocking solution overnight at room temperature on a shaker. […] The next day, the sections were again washed three times in PBS for 3 minutes each and then incubated in the secondary antibodies diluted in blocking solution for 2 hours at room temperature on a shaker. After incubation, the sections were washed three times in PBS for 3 minutes each and mounted on a slide to be imaged using the Olympus Slide Scanner VS200.
The images were analyzed using a custom protocol developed using Visiopharm software to count GPR17+ cells. Cells were considered GPR17+ if they contained an Olig2 positive nucleus, and intense GPR 17 staining that filled their processes. Statistical analysis was done using one-way ANOVA with multiple comparison in GraphPad Prism software.

PDGFRα = PDGFRα (Homo sapiens (Human), UniProt P16234); test: PDGFRα kinase enzyme assay (Promega PDGFRα Kinase Enzyme System, ADP-Glo); type: biochemical; details: 150 uM ATP
In short: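 Read-out was ADP-Glo: remaining ATP depleted, ADP converted to luminescence and compared with a standard curve.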

[3] = system: Oligodendrocyte progenitor cells (OPCs); test: In vitro OPC differentiation assay, GPR17 expression (immunocytochemistry); details: 72 hours, fold change over vehicle; for GPR17 Fold Induction (Over Vehicle; 3 μM): 3 μM (10× concentration, final 0.3 μM); for GPR17 Fold Induction (Over Vehicle; 5 μM): 5 μM (10× concentration, final 0.5 μM)
[4] = 11-point dose response, 10,000 nM to 0.169 nM, BLQ = below limit of quantitation, read-out: IC50 Values on PDGFRα Kinase Inhibition, IC50
[5] = 20 ng purified PDGFRα, Poly (Glu4Tyr1) substrate, two hours, 11-point dose response, read-out: IC50 Values on PDGFRα Kinase Inhibition

Sequence of PDGFRα (P16234 24-1089): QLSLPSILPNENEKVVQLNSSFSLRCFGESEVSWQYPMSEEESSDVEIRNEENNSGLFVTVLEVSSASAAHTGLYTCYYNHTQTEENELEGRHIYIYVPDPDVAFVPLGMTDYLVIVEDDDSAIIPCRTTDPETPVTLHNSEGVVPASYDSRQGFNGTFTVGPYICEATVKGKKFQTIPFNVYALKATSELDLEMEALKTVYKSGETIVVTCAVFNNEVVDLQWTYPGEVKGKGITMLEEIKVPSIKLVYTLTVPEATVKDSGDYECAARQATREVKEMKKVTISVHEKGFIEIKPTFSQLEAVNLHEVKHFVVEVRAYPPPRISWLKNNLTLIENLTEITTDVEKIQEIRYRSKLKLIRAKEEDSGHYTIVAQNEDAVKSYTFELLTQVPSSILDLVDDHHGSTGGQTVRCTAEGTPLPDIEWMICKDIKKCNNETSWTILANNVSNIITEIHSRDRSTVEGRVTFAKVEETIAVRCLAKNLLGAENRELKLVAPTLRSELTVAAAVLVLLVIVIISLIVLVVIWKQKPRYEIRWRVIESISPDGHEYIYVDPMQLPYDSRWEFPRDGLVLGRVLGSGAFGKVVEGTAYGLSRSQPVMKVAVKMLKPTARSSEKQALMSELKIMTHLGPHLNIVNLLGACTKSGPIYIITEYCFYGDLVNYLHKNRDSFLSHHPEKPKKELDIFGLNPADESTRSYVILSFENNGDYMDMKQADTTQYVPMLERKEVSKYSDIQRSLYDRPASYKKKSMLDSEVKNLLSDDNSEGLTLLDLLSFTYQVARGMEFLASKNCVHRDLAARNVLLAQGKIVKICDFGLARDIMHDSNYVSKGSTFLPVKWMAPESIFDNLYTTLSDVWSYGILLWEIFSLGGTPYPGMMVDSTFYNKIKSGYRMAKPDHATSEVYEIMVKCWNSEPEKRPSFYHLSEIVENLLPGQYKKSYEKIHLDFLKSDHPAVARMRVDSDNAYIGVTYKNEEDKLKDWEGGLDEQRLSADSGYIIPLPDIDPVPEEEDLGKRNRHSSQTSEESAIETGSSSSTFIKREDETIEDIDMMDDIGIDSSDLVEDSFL

Row | MBP Fold Induction (Over vehicle) [1] | pIC50 (PDGFRα; [4]) | GPR17 Fold Induction (Over Vehicle; 3 μM) [3] | GPR17 Fold Induction (Over Vehicle; 5 μM) [3] | pIC50 (PDGFRα; [5]) | GPR17 Fold Induction (Over Vehicle) [2] [fold] | Structure (SMILES) | fold induction at 10 mg/kg [2] | fold induction at 3.3 mg/kg [2] | fold induction at 30 mg/kg [2] | fold induction at 3 mg/kg [2]
1 | 2.1 | 5.62 | 7.38 | 4.40 and 4.45 |  |  | Cn1cc(-c2cnc3c(N4CCN(c5ncc(Cc6ccccc6)cn5)CC4)cnn3c2)cn1 [Compound 7, 3-[4-(5-benzylpyrimidin-2-yl)piperazin-1-yl]-6-(1-methyl-1H-pyrazol-4-yl)pyrazolo[1,5-a]pyrimidine] | 12.9 |  |  | 
2 | 1.69 | 5.68 | 7.17 | 3.57 |  |  | Cn1cc(-c2ccc3c(N4CCN(c5ncc(C(C)(N)c6ccc(F)cc6)cn5)CC4)cnn3c2)cn1 (stereo not shown) [Compound 35, 1-(4-fluorophenyl)-1-(2-{4-[6-(1-methyl-1H-pyrazol-4-yl)pyrazolo[1,5-a]pyridin-3-yl]piperazin-1-yl}pyrimidin-5-yl)ethanamine] |  | 5.01 |  | 
3 | 3.97 | 6.91 | 6.86 |  |  | 11.15 | Cn1cc(-c2ccc3c(N4CCN(c5ncc(C(C)(O)c6ccc(F)cc6)cn5)CC4)cnn3c2)cn1 (stereo not shown) [Compound 46, 1-(4-fluorophenyl)-1-(2-{4-[6-(1-methyl-1H-pyrazol-4-yl)pyrazolo[1,5-a]pyridin-3-yl]piperazin-1-yl}pyrimidin-5-yl)ethanol] |  |  |  | 
4 | 1.41 | 6.60 | 5.60 |  |  | 1.41 | Cc1cccc(Cc2cnc(N3CCN(c4cnn5cc(-c6cnn(C)c6)ccc45)CC3)nc2)c1 [Compound 53, 3-{4-[5-(3-methylbenzyl)pyrimidin-2-yl]piperazin-1-yl}-6-(1-methyl-1H-pyrazol-4-yl)pyrazolo[1,5-a]pyridine] |  |  | 4.64 | 1.22
5 | 2.14 | 6.20 | 6.81 |  |  |  | COc1cccc(Cc2cnc(N3CCN(c4cnn5cc(-c6cnn(C)c6)ccc45)CC3)nc2)c1 [Compound 54, 3-{4-[5-(3-methoxybenzyl)pyrimidin-2-yl]piperazin-1-yl}-6-(1-methyl-1H-pyrazol-4-yl)pyrazolo[1,5-a]pyridine] |  |  | 3.48 | 1.24
6 | 5.64 | 6.92 | 8.97 |  |  |  | OCCn1cc(-c2ccc3c(N4CCN(c5ncc(Cc6ccccc6)cn5)CC4)cnn3c2)cn1 [Compound 55, 2-(4-{3-[4-(5-benzylpyrimidin-2-yl)piperazin-1-yl]pyrazolo[1,5-a]pyridin-6-yl}-1H-pyrazol-1-yl)ethanol] |  |  |  | 6.43
7 | 3.72 | 6.52 | 7.31 |  |  |  | Cn1cc(-c2ccc3c(N4CCN(c5nc(Cc6ccccc6)co5)CC4)cnn3c2)cn1 [Compound 58, 3-[4-(4-benzyl-1,3-oxazol-2-yl)piperazin-1-yl]-6-(1-methyl-1H-pyrazol-4-yl)pyrazolo[1,5-a]pyridine] |  |  |  | 5.5
8 | 2.56 | 6.77 | 5.49 |  |  |  | Cn1cc(-c2ccc3c(N4CCN(c5ncc(C(O)c6ccccn6)cn5)CC4)cnn3c2)cn1 (stereo not shown) [Compound 59, (2-{4-[6-(1-methyl-1H-pyrazol-4-yl)pyrazolo[1,5-a]pyridin-3-yl]piperazin-1-yl}pyrimidin-5-yl) (pyridin-2-yl)methanol] |  |  |  | 10.6
9 | 9.88 | 8.28 | 10.09 |  |  |  | Cn1cc(-c2ccc3c(N4CCN(c5ncc(C(O)C6CCCCC6)cn5)CC4)cnn3c2)cn1 (stereo not shown) [Compound 61, cyclohexyl(2-{4-[6-(1-methyl-1H-pyrazol-4-yl)pyrazolo[1,5-a]pyridin-3-yl]piperazin-1-yl}pyrimidin-5-yl)methanol] |  |  |  | 2.36
10 | 26.50 | 6.16 | 5.07 |  |  |  | Cn1cc(-c2ccc3c(N4CCN(c5ncc(Cc6ccc(F)cc6)cn5)CC4)cnn3c2)cn1 [Compound 66, 3-{4-[5-(4-fluorobenzyl)pyrimidin-2-yl]piperazin-1-yl}-6-(1-methyl-1H-pyrazol-4-yl)pyrazolo[1,5-a]pyridine] |  |  |  | 10.4
11 | 4.86 | 5.86 | 6.37 |  |  |  | CCC(CC)Cc1cnc(N2CCN(c3cnn4cc(-c5cnn(C)c5)ccc34)CC2)nc1 [Compound 153, 3-(4-(5-(2-ethylbutyl)pyrimidin-2-yl)piperazin-1-yl)-6-(1-methyl-1H-pyrazol-4-yl)pyrazolo[1,5-a]pyridine] |  |  |  | 1.58
12 | 6.20 | 6.66 | 6.34 |  |  |  | Cn1cc(-c2ccc3c(N4CCN(c5ncc(C(O)CCc6ccccc6)cn5)CC4)cnn3c2)cn1 (stereo not shown) [Compound 175, 1-(2-(4-(6-(1-methyl-1H-pyrazol-4-yl)pyrazolo[1,5-a]pyridin-3-yl)piperazin-1-yl)pyrimidin-5-yl)-3-phenylpropan-1-ol] |  |  |  | 5.15
13 | 32.85 | 7.12 | 10.12 |  |  |  | CCC(CC)C(O)c1cnc(N2CCN(c3cnn4cc(-c5cnn(C)c5)ccc34)CC2)nc1 (stereo not shown) [Compound 177, 2-ethyl-1-(2-(4-(6-(1-methyl-1H-pyrazol-4-yl)pyrazolo[1,5-a]pyridin-3-yl)piperazin-1-yl)pyrimidin-5-yl)butan-1-ol] |  |  |  | 2.37

Further lines, the molecule ahead of its results:

Row | Structure (SMILES) | MBP Fold Induction (Over vehicle) [1] | pIC50 (PDGFRα; [4]) | GPR17 Fold Induction (Over Vehicle; 3 μM) [3] | GPR17 Fold Induction (Over Vehicle; 5 μM) [3] | pIC50 (PDGFRα; [5]) | GPR17 Fold Induction (Over Vehicle) [2] [fold] | fold induction at 10 mg/kg [2] | fold induction at 3.3 mg/kg [2] | fold induction at 30 mg/kg [2] | fold induction at 3 mg/kg [2]
14 | Cn1cc(-c2ccc3c(N4CCN(C(=O)OC(C)(C)C)CC4)cnn3c2)cn1 [Compound 11, tert-butyl 4-[6-(1-methyl-1H-pyrazol-4-yl)pyrazolo[1,5-a]pyridin-3-yl]piperazine-1-carboxylate] | 1.93 | 6.49 | 10.21 | 4.22 | > 6.00 |  | 9.93 | 2.14 |  | 
15 | Cn1cc(-c2ccc3c(N4CCN(C(=O)OCc5ccccc5)CC4)cnn3c2)cn1 [Compound 13, Benzyl 4-[6-(1-methyl-1H-pyrazol-4-yl)pyrazolo[1,5-a]pyridin-3-yl]piperazine-1-carboxylate] | 10.24 | 6.38 | 8.42 | 4.31 | > 6.00 |  |  | 1.85 |  | 
16 | Cn1cc(-c2ccn3c(N4CCN(c5ncc(Cc6ccccc6)cn5)CC4)cnc3c2)cn1 [Compound 23, 3-[4-(5-benzylpyrimidin-2-yl)piperazin-1-yl]-7-(1-methyl-1H-pyrazol-4-yl)imidazo[1,2-a]pyridine] | 2.1 | 6.37 | 9.53 | 3.98 |  |  |  |  | 14.8 | 
17 | Cn1cc(-c2ccc3c(N4CCN(C(=O)OCCc5ccccc5)CC4)cnn3c2)cn1 [Compound 30, 2-phenylethyl-4-[6-(1-methyl-1H-pyrazol-4-yl)pyrazolo[1,5-a]pyridin-3-yl]piperazine-1-carboxylate] | 1.78 | 6.00 | 6.05 | 3.25 |  |  |  | 9.91 |  | 
18 | C[C@@H](OC(=O)N1CCN(c2cnn3cc(-c4cnn(C)c4)ncc23)CC1)c1ccccc1 [Compound 49, (R)-1-phenylethyl 4-(6-(1-methyl-1H-pyrazol-4-yl)pyrazolo[1,5-a]pyrazin-3-yl)piperazine-1-carboxylate] | 2.45 | 7.23 | 9.99 | 4.42 |  |  |  | 1.68 |  | 
19 | Cn1cc(-c2ccc3c(N4CCN(C(=O)O[C@@H](c5ccccc5)C(F)(F)F)CC4)cnn3c2)cn1 [Compound 64, (1S)-2,2,2-trifluoro-1-phenylethyl 4-[6-(1-methyl-1H-pyrazol-4-yl)pyrazolo[1,5-a]pyridin-3-yl]piperazine-1-carboxylate] | 7.73 | 7.42 | 6.09 |  |  |  |  |  |  | 2.13
20 | CC[C@@H](OC(=O)N1CCN(c2cnn3cc(-c4cnn(C)c4)ccc23)CC1)c1ccccc1 [Compound 80, (1R)-1-(Phenyl)propyl 4-[6-(1-methyl-1H-pyrazol-4-yl)pyrazolo[1,5-a]pyridin-3-yl]piperazine-1-carboxylate] | 7.89 | 6.48 | 8.19 |  |  |  |  |  |  | 1.64
21 | Cn1cc(-c2ccc3c(N4CCN(C(=O)N5CCCCC5)CC4)cnn3c2)cn1 [Compound 163, (4-(6-(1-methyl-1H-pyrazol-4-yl)pyrazolo[1,5-a]pyridin-3-yl)piperazin-1-yl)(piperidin-1-yl)methanone] | 48.00 | 6.46 | 5.84 |  |  |  |  |  |  | 0.95
